≈ marks a conversion by molar mass, not a printed value.
How the values were obtained:
Haemophilus influenzae = assay: Antibacterial activity against Haemophilus influenzae Q1; assay type: functional
Staphylococcus aureus [1] = assay: Antibacterial activity against Staphylococcus aureus WCUH29; assay type: functional
[2] = Inhibitory activity against Enoyl-ACP reductase FabI in Haemophilus influenzae
Liposome = assay: Inhibitory activity in liposome lysis assay; assay type: functional, subcellular, Homo sapiens
[3] = Inhibitory activity against human FASI enzyme; assay type: functional
A549 = assay: Cytotoxicity against human A549 lung cells; assay type: functional, cell-based
[4] = biological target: T1, Enoyl-[acyl-carrier-protein] reductase [NADPH] FabI (Staphylococcus aureus, UniProt Q6GI75); assay: Inhibitory activity against Enoyl-ACP reductase FabI in Staphylococcus aureus
T1 sequence (Q6GI75 whole entry): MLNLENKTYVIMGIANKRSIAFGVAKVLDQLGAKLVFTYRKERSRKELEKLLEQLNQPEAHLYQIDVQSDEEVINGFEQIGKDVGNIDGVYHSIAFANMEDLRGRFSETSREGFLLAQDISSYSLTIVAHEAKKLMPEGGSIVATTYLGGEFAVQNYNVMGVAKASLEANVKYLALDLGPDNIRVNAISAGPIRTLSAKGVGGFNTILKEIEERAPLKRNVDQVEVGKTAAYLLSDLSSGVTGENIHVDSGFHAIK

Escherichia coli = assay: Antibacterial activity against Escherichia coli 120AcrAB-; assay type: functional
[5] = Inhibitory activity against Enoyl-ACP reductase FabK in Streptococcus pneumoniae; assay type: functional
Moraxella catarrhalis = assay: Antibacterial activity against Moraxella catarrhalis; assay type: functional
Streptococcus pneumoniae = assay: Antibacterial activity against Streptococcus pneumoniae 1629; assay type: functional
Enterococcus faecalis = assay: Antibacterial activity against Enterococcus faecalis I; assay type: functional
[6] = Inhibitory activity against Enoyl-ACP reductase FabI in Escherichia coli; assay type: functional
Staphylococcus aureus [7] = assay: Antibacterial activity against in Staphylococcus aureus WCUH29; assay type: functional
Staphylococcus aureus [8] = assay: Inhibitory activity against Staphylococcus aureus; assay type: functional

Structure (SMILES)	MIC50 (Haemophilus influenzae)	MIC50 (Staphylococcus aureus [1])	IC50 [2]	IC50 (Liposome)	IC50 [3]	IC50 [4]	MIC50 (Escherichia coli)	IC50 [5]	MIC50 (Moraxella catarrhalis)	MIC50 (Streptococcus pneumoniae)	MIC50 (Enterococcus faecalis)	IC50 [6]	MIC50 (Staphylococcus aureus [7])	IC50 (A549)	Ki (Staphylococcus aureus [8])
CC(=O)Nc1ccc(/C=C/C(=O)N(C)Cc2cc3ccccc3n2C)cn1	32 µg/mL (≈ 88.3 µM)	0.12 µg/mL (≈ 0.331 µM)	1300 nM			300 nM									
Oc1cc(Cl)ccc1Oc1ccc(Cl)cc1Cl [TRICLOSAN]	0.5 µg/mL (≈ 1.73 µM)	0.03 µg/mL (≈ 0.104 µM)					0.5 µg/mL (≈ 1.73 µM)	> 30000 nM	< 0.06 µg/mL	16 µg/mL (≈ 55.3 µM)	16 µg/mL (≈ 55.3 µM)				
Cc1cc(/C=C/C(=O)N(C)Cc2cc3ccccc3n2C)cnc1N	> 64 µg/mL	0.25 µg/mL (≈ 0.748 µM)	6100 nM			910 nM									
CN(Cc1cc2ccccc2n1C)C(=O)/C=C/c1cnc2c(c1)CCCN2	> 64 µg/mL	0.5 µg/mL (≈ 1.39 µM)	2700 nM			2300 nM									
Cc1[nH]c2ccccc2c1CN(C)C(=O)/C=C/c1cnc2c(c1)CCC(=O)N2	1 µg/mL (≈ 2.67 µM)	0.016 µg/mL (≈ 0.0427 µM)	130 nM			50 nM	0.5 µg/mL (≈ 1.34 µM)	3000 nM	< 0.06 µg/mL	16 µg/mL (≈ 42.7 µM)	16 µg/mL (≈ 42.7 µM)	< 60 nM			
CN(Cc1cc2ccccc2n1C)C(=O)/C=C/c1cnc2c(c1)CCC(=O)N2	32 µg/mL (≈ 85.5 µM)	0.03 µg/mL (≈ 0.0801 µM)	560 nM			50 nM									4.3 nM

Second part, led by results:

MIC50 (Haemophilus influenzae)	MIC50 (Staphylococcus aureus [1])	IC50 [2]	IC50 (Liposome)	IC50 [3]	IC50 [4]	MIC50 (Escherichia coli)	IC50 [5]	MIC50 (Moraxella catarrhalis)	MIC50 (Streptococcus pneumoniae)	MIC50 (Enterococcus faecalis)	IC50 [6]	MIC50 (Staphylococcus aureus [7])	Structure (SMILES)	IC50 (A549)	Ki (Staphylococcus aureus [8])
> 64 µg/mL	0.5 µg/mL (≈ 1.56 µM)	4200 nM	630000 nM	> 100000 nM									CN(Cc1cc2ccccc2n1C)C(=O)/C=C/c1ccc(N)nc1	512 µg/mL (≈ 1600 µM)	
> 64 µg/mL	< 0.001 µg/mL	25 nM			60 nM	32 µg/mL (≈ 82.4 µM)	> 30000 nM	< 0.06 µg/mL	> 64 µg/mL	> 64 µg/mL	30 nM		Cc1c(CN(C)C(=O)/C=C/c2cnc3c(c2)CCC(=O)N3)c2ccccc2n1C		
16 µg/mL (≈ 42.7 µM)	0.06 µg/mL (≈ 0.16 µM)	390 nM			130 nM	8 µg/mL (≈ 21.4 µM)	5000 nM	< 0.06 µg/mL	16 µg/mL (≈ 42.7 µM)	16 µg/mL (≈ 42.7 µM)	70 nM		CN(Cc1cn(C)c2ccccc12)C(=O)/C=C/c1cnc2c(c1)CCC(=O)N2		
> 64 µg/mL		7600 nM			940 nM							2 µg/mL (≈ 5.31 µM)	CC(=O)Nc1ncc(/C=C/C(=O)N(C)Cc2cc3ccccc3n2C)cc1C		
> 64 µg/mL	< 0.001 µg/mL	70 nM			20 nM	> 64 µg/mL	> 30000 nM	2 µg/mL (≈ 4.97 µM)	> 64 µg/mL	> 64 µg/mL	< 70 nM		Cc1cccc2c(CN(C)C(=O)/C=C/c3cnc4c(c3)CCC(=O)N4)c(C)n(C)c12		

From ChEMBL document CHEMBL1136775, “Indole naphthyridinones as inhibitors of bacterial enoyl-ACP reductases FabI and FabK” (J Med Chem, 2003)
